Assay results published in patent US9951046B2, “TRPA1 modulators” (Algomedix, Inc., priority 2014, dated 2018).

target: T1, human TRPA1 (Homo sapiens, UniProt O75762); assay: Cell-based functional intracellular calcium ([Ca2+]i) assay, Fluo-4/Fluo-8, FlexStation, challenge with reference TRPA1 agonist (FFA, AITC or 4-HNE); settings: not given
T1 construct: expressed in transfected cells
Method: A stable HEK293 cell line that expresses human TRPA1 in an inducible manner was employed in this assay. […] The expression of TRPA1 was induced by including 1 μg/ml doxycycline in the culture medium. For the induced cells, ruthenium red (5 μM) was also added to minimize the constitutive TRPA1 channel activity and cells were used 14-18 hrs after induction. To measure [Ca^2+]i changes, cells were seeded in wells of 96-well plates at ˜100,000 cells/well and grown for 14-18 hrs to reach confluency. To prevent cell loss from subsequent washing, the wells were treated with 20 μg/ml polyornithine (MW>30,000, Sigma, St Louis, Mo.) for >15 min and rinsed once with Hank's balanced salt solution without Mg^2+ and Ca^2+. […] In some experiments, Fluo-8-AM was used instead of Fluo-4-AM as the calcium-sensitive fluorescent probe. Probenecid (2 mM) was included in all solutions to prevent the leakage of Fluo-4 or Fluo-8 from the cells. At the end of the incubation, cells were washed three times with ECS and placed in 80 μL of the same solution. Fluorescence changes were measured using a fluid handling integrated fluorescence plate reader, FlexStation (Molecular Devices, Sunnyvale, Calif.). Stock solutions of test compounds were initially solubilized in 100% DMSO and then serially diluted to achieve the desired final concentration. […] Drugs were diluted into ECS at 2× or 3× the desired final concentrations and delivered to the sample plate by an integrated robotic 8-channel pipettor at preprogrammed time points. […] Experiments were performed at 20-25° C. For certain experiments, 0.1% BSA was included with the cells and test compounds.
The kinetic data obtained at each test concentration of drug represents a series of fluorescent intensities as a function of time.
Using a sequential addition protocol, test compounds were initially applied to the cells loaded with Fluo-4 or Fluo-8 and fluorescence changes in each well monitored for 2.5 min. The plate was read again in a kinetic mode after a 15-30 min incubation with the test compounds after obtaining baseline values (about 30 s) and subsequent addition of challenge with a reference TRPA1 agonist. Reference TRPA1 agonists in testing each compound included at least one of flufenamic acid (FFA), allyl isothiocyanate (AITC) and 4-hydroxynonenal (4-HNE).
Antagonist activity can be expressed in terms of IC50 with respect to TRPA1 and agonist activity can be expressed in terms of EC50 with respect to TRPA1.

T1 sequence (O75762 whole entry): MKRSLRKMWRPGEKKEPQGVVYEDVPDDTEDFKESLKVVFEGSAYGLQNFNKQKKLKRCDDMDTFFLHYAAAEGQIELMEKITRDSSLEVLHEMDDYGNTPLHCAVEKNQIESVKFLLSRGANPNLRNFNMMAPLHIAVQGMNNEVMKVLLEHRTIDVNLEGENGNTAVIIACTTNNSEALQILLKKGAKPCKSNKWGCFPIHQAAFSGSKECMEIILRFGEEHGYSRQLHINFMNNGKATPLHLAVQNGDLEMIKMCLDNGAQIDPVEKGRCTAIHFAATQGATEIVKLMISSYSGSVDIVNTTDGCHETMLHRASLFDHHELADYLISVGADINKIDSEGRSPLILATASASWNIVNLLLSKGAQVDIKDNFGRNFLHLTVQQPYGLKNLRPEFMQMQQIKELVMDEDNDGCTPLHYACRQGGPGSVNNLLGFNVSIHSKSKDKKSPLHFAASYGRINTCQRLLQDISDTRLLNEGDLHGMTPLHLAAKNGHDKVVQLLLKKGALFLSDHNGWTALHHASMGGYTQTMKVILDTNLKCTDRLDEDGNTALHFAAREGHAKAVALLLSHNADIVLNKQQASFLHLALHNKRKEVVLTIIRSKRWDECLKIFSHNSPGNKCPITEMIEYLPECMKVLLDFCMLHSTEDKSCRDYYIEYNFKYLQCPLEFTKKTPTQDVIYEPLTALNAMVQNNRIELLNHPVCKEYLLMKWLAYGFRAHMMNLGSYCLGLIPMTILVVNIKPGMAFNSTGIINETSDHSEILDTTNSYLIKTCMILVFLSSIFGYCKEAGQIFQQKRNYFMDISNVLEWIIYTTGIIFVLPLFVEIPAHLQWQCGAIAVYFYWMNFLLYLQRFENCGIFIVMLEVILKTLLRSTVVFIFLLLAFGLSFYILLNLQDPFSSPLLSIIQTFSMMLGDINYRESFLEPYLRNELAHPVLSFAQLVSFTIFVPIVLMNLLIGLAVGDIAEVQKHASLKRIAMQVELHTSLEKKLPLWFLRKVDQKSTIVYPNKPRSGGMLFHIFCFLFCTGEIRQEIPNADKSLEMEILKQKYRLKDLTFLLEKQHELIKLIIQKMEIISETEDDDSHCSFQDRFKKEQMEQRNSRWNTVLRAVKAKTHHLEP

| Structure (SMILES) | IC50 [µM] |
| --- | --- |
| CC1COC2(CCN(C(=O)c3cc(-c4ccncc4)n(-c4ccc(F)c(F)c4)n3)CC2)O1 (stereo not shown) [Compound 93] | > 25 |
| CCCC1COC2(CCN(C(=O)c3cc(-c4ccncc4)n(-c4ccc(C(F)(F)F)c(F)c4)n3)CC2)O1 (stereo not shown) [Compound 117] | > 25 |
| CCCC1COC2(CCN(C(=O)c3cc(-c4ccncc4)n(-c4ccc(F)c(F)c4)n3)CC2)O1 (stereo not shown) [Compound 96] | > 25 |
| O=C(c1cc(-c2cccnc2)n(-c2ccc(F)c(C(F)(F)F)c2)n1)N1C2CCC1CC(n1c(=O)[nH]c3ccc(F)c(F)c31)C2 (stereo not shown) [Compound 331] | 0.001 to 5 |

same assay, conditions: HEK293 cells expressing human TRPA1; IC50 class after addition of reference TRPA1 agonist (FFA, AITC or 4-HNE); read-out: human TRPA1-HEK Activity

| Structure (SMILES) | IC50 [µM] |
| --- | --- |
| O=C(c1cc(-c2ccncc2)n(-c2ccc(C(F)(F)F)cc2)n1)N1CCC2(CC1)SCCS2 [Compound 63] | > 25 |
| O=C(c1cc(-c2ccncc2)n(-c2ccc(C(F)(F)F)nc2)n1)N1CCC2(CC1)C(=O)NCN2c1ccccc1 [Compound 164] | 5 to 25 |
| O=C(c1cc(-c2cccnc2)n(-c2ccc(F)c(C(F)(F)F)c2)n1)N1CCC(N2Cc3c(F)cccc3NC2=O)CC1 [Compound 289] | 0.001 to 5 |
| N#Cc1ccc(-n2nc(C(=O)N3CCC(n4c(=O)[nH]c5ccc(F)c(F)c54)CC3)cc2-c2cccnc2)cc1F [Compound 224] | 0.001 to 5 |
| O=C(c1cc(-c2cccnc2)n(-c2ccc(C(F)(F)F)c(F)c2)n1)N1CCN2C(=O)OC[C@@H]2C1 [Compound 191] | 0.001 to 5 |
| O=C(c1cc(-c2ccncc2)n(-c2ccccc2)n1)N1CCC2(CCCC2)CC1 [Compound 4] | > 25 |
| Cc1cc(N2CNC(=O)C23CCN(C(=O)c2cc(-c4cccnc4)n(-c4cc(F)c(F)c(F)c4)n2)CC3)cc(C)c1F [Compound 204] | 0.001 to 5 |
| Cc1c(C(=O)N2CCC3(CC2)C(=O)NCN3c2ccc(F)cc2)nn(-c2cc(F)c(F)c(F)c2)c1-c1cccnc1 [Compound 266] | 0.001 to 5 |
| O=C1OC2(CCN(C(=O)c3cc(-c4ccncc4)n(-c4ccc(C(F)(F)F)c(F)c4)n3)CC2)c2ccccc21 [Compound 102] | > 25 |
| N#Cc1ccc(-n2nc(C(=O)N3CCC(n4c(=O)[nH]c5ccc(F)c(F)c54)CC3)cc2-c2cccnc2)cc1 [Compound 212] | 0.001 to 5 |
| O=C1Nc2ccc(F)cc2C2(CCN(C(=O)c3cc(-c4cccnc4)n(-c4cc(F)c(F)c(F)c4)n3)CC2)O1 [Compound 231] | 0.001 to 5 |
| O=C(c1cc(-c2cccnc2)n(-c2c(Cl)cc(C(F)(F)F)cc2Cl)n1)N1CCC2(CC1)C(=O)NCN2c1ccc(F)c(F)c1 [Compound 219] | 0.001 to 5 |
| O=C(c1cc(-c2cccnc2)n(-c2ccc(F)c(C(F)(F)F)c2)n1)N1CCC(n2c(=S)[nH]c3cc(F)c(F)c(F)c32)CC1 [Compound 298] | 0.001 to 5 |
| O=C(c1cc(-c2ccncc2)n(-c2ccc(C(F)(F)F)cc2)n1)N1CC(=O)N2CCc3ccccc3C2C1 (stereo not shown) [Compound 60] | 5 to 25 |
| O=C(c1nn(-c2ccc(F)c(C(F)(F)F)c2)c2c1CCc1cccnc1-2)N1CCC2(CC1)C(=O)NCN2c1ccc(F)cc1 [Compound 315] | 0.001 to 5 |
| O=C1OC2(CCN(C(=O)c3cc(-c4ccncc4)n(-c4ccc(C(F)(F)F)nc4)n3)CC2)c2ccc(Cl)cc21 [Compound 124] | > 25 |
| O=C(c1cc(-c2ccncc2)n(-c2ccc(C(F)(F)F)cc2)n1)N1CCC(c2nc3ccccc3o2)CC1 [Compound 65] | > 25 |
| Cc1cc(N2CNC(=O)C23CCN(C(=O)c2cc(-c4cccnc4)n(-c4ccc(F)c(C(F)(F)F)c4)n2)CC3)cc(C)c1F [Compound 242] | 0.001 to 5 |
| O=C1OC2(CCN(C(=O)c3cc(-c4ccncc4)n(-c4ccc(C(F)(F)F)cc4)n3)CC2)c2ccccc21 [Compound 58] | > 25 |
| Cc1cc(OC(F)(F)F)ccc1-n1nc(C(=O)N2CCC3(CC2)C(=O)NCN3c2ccc(F)c(F)c2)cc1-c1cccnc1 [Compound 225] | 0.001 to 5 |
| CC1CC(n2c(=O)[nH]c3ccc(F)c(F)c32)CC(C)N1C(=O)c1cc(-c2cccnc2)n(-c2ccc(C(F)(F)F)c(F)c2)n1 (stereo not shown) [Compound 194] | 5 to 25 |
| O=C(c1cc(-c2cccnc2)n(-c2ccc(F)c(C(F)(F)F)c2)n1)N1CCC2(CC1)C(=O)NCN2c1ccc(OC(F)F)cc1 [Compound 283] | 5 to 25 |
| CN1C(=O)NC2(CCN(C(=O)c3cc(-c4ccncc4)n(-c4ccc(C(F)(F)F)cc4)n3)CC2)C1=O [Compound 75] | > 25 |
| O=C(c1cc(-c2cccnc2)n(-c2ccc(C(F)(F)F)c(F)c2)n1)N1CCC(n2c(=O)[nH]c3ccc(F)c(C(F)(F)F)c32)CC1 [Compound 196] | 0.001 to 5 |
| O=C(c1cc(-c2cccnc2)n(-c2ccc(I)c(C(F)(F)F)c2)n1)N1CCC(n2c(=O)[nH]c3ccc(F)c(F)c32)CC1 [Compound 327] | 0.001 to 5 |
| O=C(Nc1ccc2[nH]c(=O)oc(=O)c2c1)c1cc(-c2ccncc2)n(-c2ccccc2)n1 [Compound 38] | 5 to 25 |

| Structure (SMILES) | IC50 [µM] |
| --- | --- |
| O=C(c1cc(-c2ccncc2)n(-c2ccc(C(F)(F)F)cc2)n1)N1CCC(N2C(=O)OC[C@H]2c2ccccc2)CC1 [Compound 62] | > 25 |
| O=C(Nc1ccc2c(c1)COC2=O)c1cc(-c2ccncc2)n(-c2cnccn2)n1 [Compound 134] | > 25 |
| Cn1c(=O)n(C2CCN(C(=O)c3cc(-c4ccncc4)n(-c4ccc(C(F)(F)F)cc4)n3)CC2)c2ccccc21 [Compound 61] | > 25 |
| O=C(c1cc(-c2ccncc2)n(-c2cnccn2)n1)N1CCC2(CC1)NCN(c1ccccc1)C2=O [Compound 137] | > 25 |
| O=C(c1cc(-c2cccnc2)n(-c2ccc(C(F)(F)F)c(F)c2)n1)N1CCC(n2c(=S)[nH]c3ccc(F)c(F)c32)CC1 [Compound 182] | 0.001 to 5 |
| O=C(c1cc(-c2cccnc2)n(-c2ccc(C(F)(F)F)cc2)n1)N1CCC2(CC1)C(=O)NCN2c1ccc(F)cc1 [Compound 49] | 0.001 to 5 |
| O=C(c1cc(-c2cccnc2)n(-c2ccc(C(F)(F)F)c(F)c2)n1)N1CCC2(CC1)C(=O)NCN2c1ccc(Br)cc1 [Compound 184] | > 25 |
| CN1C(=O)NC2(CCN(C(=O)c3cc(-c4ccncc4)n(-c4ccc(F)c(F)c4)n3)CC2)C1=O [Compound 97] | > 25 |
| N#Cc1cccc2[nH]c(=O)n(C3CCN(C(=O)c4cc(-c5cccnc5)n(-c5ccc(C(F)(F)F)c(F)c5)n4)CC3)c12 [Compound 243] | > 25 |
| O=C(c1cc(-c2ccncc2)n(-c2ccc(F)c(F)c2)n1)N1CCC2(CC1)SCCS2 [Compound 85] | > 25 |
| N#Cc1ccc(-n2nc(C(=O)N3CCC(n4c(=O)[nH]c5ccc(F)c(F)c54)CC3)cc2-c2cccnc2)c(C(F)(F)F)c1 [Compound 325] | 0.001 to 5 |
| O=C(c1cc(-c2ccncc2)n(-c2ccc(C(F)(F)F)cc2)n1)N1CCN2C(=O)OC[C@@H]2C1 [Compound 72] | 5 to 25 |
| Cn1c(=O)oc2ccc(NC(=O)c3cc(-c4ccncc4)n(-c4ccccc4)n3)cc21 [Compound 39] | > 25 |
| O=C(Nc1ccc2c(c1)OC(F)(F)O2)c1cc(-c2ccncc2)n(-c2ccc(C(F)(F)F)cc2)n1 [Compound 66] | > 25 |
| O=C(c1cc(-c2ccncc2)n(-c2ccc(F)c(F)c2)n1)N1CCC2(CC1)OCc1ccccc12 [Compound 79] | > 25 |
| O=C(c1cc(-c2cccnc2)n(-c2ccc(F)c(C(F)(F)F)c2)n1)N1CCC(n2c(=O)[nH]c3ccc(F)c(F)c32)CC1 [Compound 241] | 0.001 to 5 |
| O=C(c1cc(-c2cccnc2)n(-c2ccc(F)c(C(F)(F)F)c2)n1)N1CCC(N2Cc3ccc(F)cc3NC2=O)CC1 [Compound 290] | 0.001 to 5 |
| O=C(c1cc(-c2cccnc2)n(-c2cc(F)c(F)c(F)c2)n1)N1CCC(n2c(=O)[nH]c3ncccc32)CC1 [Compound 256] | > 25 |
| Cc1cc(OC(F)(F)F)ccc1-n1nc(C(=O)N2CCC(n3c(=O)[nH]c4ccc(F)c(F)c43)CC2)cc1-c1cccnc1 [Compound 227] | 0.001 to 5 |
| Cn1c(=O)n(C2CCN(C(=O)c3cc(-c4ccncc4)n(-c4ccccc4)n3)CC2)c2ccccc21 [Compound 172] | > 25 |
| N#Cc1cc2[nH]c(=O)n(C3CCN(C(=O)c4cc(-c5cccnc5)n(-c5cc(F)c(F)c(F)c5)n4)CC3)c2cc1F [Compound 235] | 0.001 to 5 |
| O=C(c1cc(-c2ccncc2)n(-c2cc(F)c(F)c(F)c2)n1)N1CCC2(CC1)C(=O)NCN2c1ccccc1 [Compound 140] | 5 to 25 |
| O=C(c1cc(-c2ccncc2)n(-c2cc(F)c(F)c(F)c2)n1)N1CCC(n2c(=O)[nH]c3ccccc32)CC1 [Compound 141] | 5 to 25 |
| O=C(c1cc(-c2ccncc2)n(-c2ccc(C(F)(F)F)c(F)c2)n1)N1CCN2C(=O)OC[C@@H]2C1 [Compound 115] | > 25 |
| COc1cc(F)ccc1N1CNC(=O)C12CCN(C(=O)c1cc(-c3cccnc3)n(-c3ccc(C(F)(F)F)c(F)c3)n1)CC2 [Compound 197] | 5 to 25 |
